From ChEMBL document CHEMBL4507317, “Data for DCP probe BAY-899” (2021)

Key:
[1] = test system: Phosphatidylinositol 4,5-bisphosphate 3-kinase catalytic subunit alpha isoform (Homo sapiens), P42336 [H1047L]; settings: Compound concentration 1000.0 nM
[2] = biological target: Mitogen-activated protein kinase kinase kinase 2 (Homo sapiens) (UniProt Q9Y2U5); settings: Compound concentration 1000.0 nM
[3] = biological target: Serine/threonine-protein kinase D3 (Homo sapiens) (UniProt O94806); settings: Compound concentration 1000.0 nM
[4] = biological target: Mitogen-activated protein kinase 14 (Homo sapiens) (UniProt Q16539); settings: Compound concentration 1000.0 nM
Chain of Mitogen-activated protein kinase 14 (Homo sapiens) (Q16539 whole entry): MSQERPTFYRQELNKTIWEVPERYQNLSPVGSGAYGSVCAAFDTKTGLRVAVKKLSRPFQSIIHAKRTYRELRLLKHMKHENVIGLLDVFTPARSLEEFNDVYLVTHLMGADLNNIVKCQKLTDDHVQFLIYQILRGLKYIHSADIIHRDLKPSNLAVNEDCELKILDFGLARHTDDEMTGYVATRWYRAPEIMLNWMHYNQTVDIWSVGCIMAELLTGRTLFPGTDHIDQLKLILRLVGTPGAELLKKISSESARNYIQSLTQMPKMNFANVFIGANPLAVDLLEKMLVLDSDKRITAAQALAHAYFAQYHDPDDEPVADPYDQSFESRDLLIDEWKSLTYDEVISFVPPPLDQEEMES

[5] = biological target: SRSF protein kinase 1 (Homo sapiens) (UniProt Q96SB4); settings: Compound concentration 1000.0 nM
[6] = test system: Phosphatidylinositol 4,5-bisphosphate 3-kinase catalytic subunit alpha isoform (Homo sapiens), P42336 [M1043I]; settings: Compound concentration 1000.0 nM
Chain of Phosphatidylinositol 4,5-bisphosphate 3-kinase catalytic subunit alpha isoform (Homo sapiens), P42336 [M1043I] (P42336 whole entry M1043I, canonical isoform): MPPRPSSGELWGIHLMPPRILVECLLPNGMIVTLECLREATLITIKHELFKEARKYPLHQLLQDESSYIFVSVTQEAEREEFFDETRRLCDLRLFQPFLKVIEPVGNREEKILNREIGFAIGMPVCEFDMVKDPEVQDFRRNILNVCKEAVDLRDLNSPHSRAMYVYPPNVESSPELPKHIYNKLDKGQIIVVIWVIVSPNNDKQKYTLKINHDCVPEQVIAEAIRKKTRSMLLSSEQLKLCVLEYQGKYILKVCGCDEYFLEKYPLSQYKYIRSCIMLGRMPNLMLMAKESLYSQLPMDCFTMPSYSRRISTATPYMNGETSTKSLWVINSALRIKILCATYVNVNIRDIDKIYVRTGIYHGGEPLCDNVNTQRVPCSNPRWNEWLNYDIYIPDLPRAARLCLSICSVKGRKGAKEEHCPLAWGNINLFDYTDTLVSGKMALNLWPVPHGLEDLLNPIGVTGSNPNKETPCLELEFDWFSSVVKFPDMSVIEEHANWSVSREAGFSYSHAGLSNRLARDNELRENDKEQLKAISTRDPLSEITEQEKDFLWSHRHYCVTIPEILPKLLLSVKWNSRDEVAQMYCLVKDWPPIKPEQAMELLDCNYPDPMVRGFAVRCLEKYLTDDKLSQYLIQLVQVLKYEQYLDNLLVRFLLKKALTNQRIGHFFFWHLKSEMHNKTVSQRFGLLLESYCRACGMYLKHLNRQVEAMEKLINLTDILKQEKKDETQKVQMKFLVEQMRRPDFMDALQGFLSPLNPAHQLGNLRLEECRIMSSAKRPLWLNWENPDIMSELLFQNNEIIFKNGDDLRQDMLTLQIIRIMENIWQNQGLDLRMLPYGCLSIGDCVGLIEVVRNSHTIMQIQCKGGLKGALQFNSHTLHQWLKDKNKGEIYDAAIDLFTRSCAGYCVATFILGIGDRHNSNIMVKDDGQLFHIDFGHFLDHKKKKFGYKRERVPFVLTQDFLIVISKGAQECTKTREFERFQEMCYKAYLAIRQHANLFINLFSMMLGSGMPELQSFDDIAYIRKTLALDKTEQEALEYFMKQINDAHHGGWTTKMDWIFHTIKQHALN

[7] = biological target: Epidermal growth factor receptor (Homo sapiens) (UniProt P00533); settings: Compound concentration 1000.0 nM
Chain of Epidermal growth factor receptor (Homo sapiens) (P00533 whole entry): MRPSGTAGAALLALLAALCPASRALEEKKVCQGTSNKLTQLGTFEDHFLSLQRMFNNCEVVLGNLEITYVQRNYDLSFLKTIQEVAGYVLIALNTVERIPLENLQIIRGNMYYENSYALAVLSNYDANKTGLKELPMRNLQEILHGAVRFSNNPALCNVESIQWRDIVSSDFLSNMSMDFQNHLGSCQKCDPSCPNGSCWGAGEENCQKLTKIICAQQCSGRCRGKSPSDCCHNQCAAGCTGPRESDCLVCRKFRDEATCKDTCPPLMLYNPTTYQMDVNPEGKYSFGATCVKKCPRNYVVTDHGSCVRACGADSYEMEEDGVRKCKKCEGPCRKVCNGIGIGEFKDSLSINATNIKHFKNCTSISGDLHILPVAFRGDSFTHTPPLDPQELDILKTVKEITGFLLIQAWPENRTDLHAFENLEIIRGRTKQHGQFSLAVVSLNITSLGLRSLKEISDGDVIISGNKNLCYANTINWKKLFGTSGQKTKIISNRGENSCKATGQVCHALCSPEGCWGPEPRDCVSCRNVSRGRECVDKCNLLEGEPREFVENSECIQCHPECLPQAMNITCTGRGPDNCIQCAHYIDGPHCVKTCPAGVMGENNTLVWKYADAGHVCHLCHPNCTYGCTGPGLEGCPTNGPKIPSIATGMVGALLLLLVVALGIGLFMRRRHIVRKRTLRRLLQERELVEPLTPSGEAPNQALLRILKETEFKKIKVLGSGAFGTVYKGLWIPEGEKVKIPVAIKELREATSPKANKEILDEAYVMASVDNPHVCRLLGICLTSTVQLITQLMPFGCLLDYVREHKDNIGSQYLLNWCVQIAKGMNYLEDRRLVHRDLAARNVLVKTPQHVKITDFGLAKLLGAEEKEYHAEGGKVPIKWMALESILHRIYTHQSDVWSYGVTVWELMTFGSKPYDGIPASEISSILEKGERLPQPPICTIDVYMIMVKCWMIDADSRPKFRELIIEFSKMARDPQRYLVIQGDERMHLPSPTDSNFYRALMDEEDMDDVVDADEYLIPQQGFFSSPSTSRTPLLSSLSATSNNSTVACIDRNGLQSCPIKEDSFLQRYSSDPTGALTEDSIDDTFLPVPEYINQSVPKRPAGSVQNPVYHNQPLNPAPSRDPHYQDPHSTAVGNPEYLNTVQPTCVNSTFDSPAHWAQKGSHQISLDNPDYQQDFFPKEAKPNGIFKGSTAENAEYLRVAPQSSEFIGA

[8] = biological target: Serine/threonine-protein kinase TAO1 (Homo sapiens) (UniProt Q7L7X3); settings: Compound concentration 1000.0 nM
[9] = biological target: Fibroblast growth factor receptor 4 (Homo sapiens) (UniProt P22455); settings: Compound concentration 1000.0 nM
[10] = biological target: Cyclin-dependent kinase 11A (Homo sapiens) (UniProt Q9UQ88); settings: Compound concentration 1000.0 nM
[11] = biological target: Tyrosine-protein kinase ABL1 (Homo sapiens) (UniProt P00519); settings: Compound concentration 1000.0 nM
[12] = biological target: Serine/threonine-protein kinase mTOR (Homo sapiens) (UniProt P42345); settings: Compound concentration 1000.0 nM
[13] = test system: Epidermal growth factor receptor (Homo sapiens), P00533 [UNDEFINED MUTATION]; settings: Compound concentration 1000.0 nM
[14] = biological target: Cyclin-dependent kinase 14 (Homo sapiens) (UniProt O94921); settings: Compound concentration 1000.0 nM
[15] = biological target: Ribosomal protein S6 kinase alpha-4 (Homo sapiens) (UniProt O75676); settings: Compound concentration 1000.0 nM
[16] = biological target: Mitogen-activated protein kinase 8 (Homo sapiens) (UniProt P45983); settings: Compound concentration 1000.0 nM
Chain of Mitogen-activated protein kinase 8 (Homo sapiens) (P45983 whole entry): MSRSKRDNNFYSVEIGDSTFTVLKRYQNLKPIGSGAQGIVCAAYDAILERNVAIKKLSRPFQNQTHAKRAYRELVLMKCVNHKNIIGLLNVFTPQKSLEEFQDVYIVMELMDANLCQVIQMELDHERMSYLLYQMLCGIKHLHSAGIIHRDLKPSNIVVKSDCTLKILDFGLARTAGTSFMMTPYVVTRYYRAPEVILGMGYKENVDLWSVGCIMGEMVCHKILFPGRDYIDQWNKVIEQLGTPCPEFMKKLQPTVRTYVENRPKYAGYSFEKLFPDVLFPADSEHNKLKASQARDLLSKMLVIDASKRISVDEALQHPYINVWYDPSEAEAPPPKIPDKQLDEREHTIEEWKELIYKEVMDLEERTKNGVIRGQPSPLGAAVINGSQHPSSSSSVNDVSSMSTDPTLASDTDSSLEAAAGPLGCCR

[17] = biological target: Alpha-1D adrenergic receptor (Homo sapiens) (UniProt P25100); settings: Compound concentration 10.0 uM
[18] = test system: Mast/stem cell growth factor receptor Kit (Homo sapiens), P10721 [D816V]; settings: Compound concentration 1000.0 nM
[19] = biological target: Tyrosine-protein kinase Mer (Homo sapiens) (UniProt Q12866); settings: Compound concentration 1000.0 nM
[20] = biological target: 5-hydroxytryptamine receptor 1D (Homo sapiens) (UniProt P28221); settings: Compound concentration 10.0 uM
Chain of 5-hydroxytryptamine receptor 1D (Homo sapiens) (P28221 whole entry): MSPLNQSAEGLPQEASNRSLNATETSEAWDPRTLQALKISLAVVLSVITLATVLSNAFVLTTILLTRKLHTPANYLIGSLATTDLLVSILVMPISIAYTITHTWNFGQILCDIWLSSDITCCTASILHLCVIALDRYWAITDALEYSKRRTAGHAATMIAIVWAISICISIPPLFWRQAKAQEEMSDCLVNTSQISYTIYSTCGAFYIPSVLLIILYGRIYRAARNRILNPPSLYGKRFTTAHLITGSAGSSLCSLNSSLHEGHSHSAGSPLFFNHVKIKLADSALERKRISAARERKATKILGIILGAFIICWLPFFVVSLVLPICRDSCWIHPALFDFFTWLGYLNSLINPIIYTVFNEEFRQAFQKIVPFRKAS

[21] = biological target: Serine/threonine-protein kinase ULK2 (Homo sapiens) (UniProt Q8IYT8); settings: Compound concentration 1000.0 nM
[22] = biological target: Cyclin-dependent kinase 8 (Homo sapiens) (UniProt P49336); settings: Compound concentration 1000.0 nM
[23] = biological target: Alpha-1B adrenergic receptor (Homo sapiens) (UniProt P35368); settings: Compound concentration 10.0 uM
[24] = biological target: Tyrosine-protein kinase Lck (Homo sapiens) (UniProt P06239); settings: Compound concentration 1000.0 nM
[25] = biological target: Tyrosine-protein kinase receptor Tie-1 (Homo sapiens) (UniProt P35590); settings: Compound concentration 1000.0 nM
[26] = biological target: Non-receptor tyrosine-protein kinase TYK2 (Homo sapiens) (UniProt P29597); settings: Compound concentration 1000.0 nM
[27] = biological target: Insulin receptor (Homo sapiens) (UniProt P06213); settings: Compound concentration 1000.0 nM
[28] = biological target: Receptor-interacting serine/threonine-protein kinase 2 (Homo sapiens) (UniProt O43353); settings: Compound concentration 1000.0 nM
Chain of Receptor-interacting serine/threonine-protein kinase 2 (Homo sapiens) (O43353 whole entry): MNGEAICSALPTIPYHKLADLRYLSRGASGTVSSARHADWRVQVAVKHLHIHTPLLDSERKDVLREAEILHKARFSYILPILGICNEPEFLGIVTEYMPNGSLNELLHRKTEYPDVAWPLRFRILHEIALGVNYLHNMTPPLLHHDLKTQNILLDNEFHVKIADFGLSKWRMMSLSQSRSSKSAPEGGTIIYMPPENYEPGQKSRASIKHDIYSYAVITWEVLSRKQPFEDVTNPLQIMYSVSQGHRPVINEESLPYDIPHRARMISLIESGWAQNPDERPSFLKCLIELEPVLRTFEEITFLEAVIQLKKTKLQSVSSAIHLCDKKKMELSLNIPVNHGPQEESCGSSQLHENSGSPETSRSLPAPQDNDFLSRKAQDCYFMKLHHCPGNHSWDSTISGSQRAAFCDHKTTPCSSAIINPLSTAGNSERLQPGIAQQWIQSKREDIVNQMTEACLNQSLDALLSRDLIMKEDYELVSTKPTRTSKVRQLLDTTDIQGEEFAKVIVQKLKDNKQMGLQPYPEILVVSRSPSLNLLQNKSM

[29] = test system: Mast/stem cell growth factor receptor Kit (Homo sapiens), P10721 [L576P]; settings: Compound concentration 1000.0 nM
[30] = test system: Proto-oncogene tyrosine-protein kinase receptor Ret (Homo sapiens), P07949 [V804M]; settings: Compound concentration 1000.0 nM
[31] = biological target: Ephrin type-B receptor 6 (Homo sapiens) (UniProt O15197); settings: Compound concentration 1000.0 nM
[32] = biological target: Bone morphogenetic protein receptor type-2 (Homo sapiens) (UniProt Q13873); settings: Compound concentration 1000.0 nM
[33] = biological target: Maternal embryonic leucine zipper kinase (Homo sapiens) (UniProt Q14680); settings: Compound concentration 1000.0 nM
[34] = biological target: Serine/threonine-protein kinase WNK3 (Homo sapiens) (UniProt Q9BYP7); settings: Compound concentration 1000.0 nM
[35] = test system: Tyrosine-protein kinase ABL1 (Homo sapiens), P00519 [H396P]; settings: Compound concentration 1000.0 nM
[36] = biological target: Dual specificity mitogen-activated protein kinase kinase 1 (Homo sapiens) (UniProt Q02750); settings: Compound concentration 1000.0 nM
[37] = biological target: Uncharacterized serine/threonine-protein kinase SBK3 (Homo sapiens) (UniProt P0C264); settings: Compound concentration 1000.0 nM
Chain of Uncharacterized serine/threonine-protein kinase SBK3 (Homo sapiens) (P0C264 whole entry): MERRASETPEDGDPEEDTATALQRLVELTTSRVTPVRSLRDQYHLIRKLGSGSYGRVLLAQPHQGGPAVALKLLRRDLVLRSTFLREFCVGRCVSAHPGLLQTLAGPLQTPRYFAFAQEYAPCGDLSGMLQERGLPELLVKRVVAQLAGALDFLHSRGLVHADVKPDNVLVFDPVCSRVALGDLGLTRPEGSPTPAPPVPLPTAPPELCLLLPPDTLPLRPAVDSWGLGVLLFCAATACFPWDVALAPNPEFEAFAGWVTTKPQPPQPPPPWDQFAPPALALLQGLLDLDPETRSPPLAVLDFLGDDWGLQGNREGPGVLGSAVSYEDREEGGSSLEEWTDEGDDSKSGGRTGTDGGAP

[38] = biological target: Ephrin type-A receptor 3 (Homo sapiens) (UniProt P29320); settings: Compound concentration 1000.0 nM
[39] = biological target: Proto-oncogene tyrosine-protein kinase receptor Ret (Homo sapiens) (UniProt P07949); settings: Compound concentration 1000.0 nM
[40] = test system: Phosphatidylinositol 4,5-bisphosphate 3-kinase catalytic subunit alpha isoform (Homo sapiens), P42336 [C420R]; settings: Compound concentration 1000.0 nM
[41] = biological target: Beta-adrenergic receptor kinase 1 (Homo sapiens) (UniProt P25098); settings: Compound concentration 1000.0 nM
Chain of Beta-adrenergic receptor kinase 1 (Homo sapiens) (P25098 whole entry): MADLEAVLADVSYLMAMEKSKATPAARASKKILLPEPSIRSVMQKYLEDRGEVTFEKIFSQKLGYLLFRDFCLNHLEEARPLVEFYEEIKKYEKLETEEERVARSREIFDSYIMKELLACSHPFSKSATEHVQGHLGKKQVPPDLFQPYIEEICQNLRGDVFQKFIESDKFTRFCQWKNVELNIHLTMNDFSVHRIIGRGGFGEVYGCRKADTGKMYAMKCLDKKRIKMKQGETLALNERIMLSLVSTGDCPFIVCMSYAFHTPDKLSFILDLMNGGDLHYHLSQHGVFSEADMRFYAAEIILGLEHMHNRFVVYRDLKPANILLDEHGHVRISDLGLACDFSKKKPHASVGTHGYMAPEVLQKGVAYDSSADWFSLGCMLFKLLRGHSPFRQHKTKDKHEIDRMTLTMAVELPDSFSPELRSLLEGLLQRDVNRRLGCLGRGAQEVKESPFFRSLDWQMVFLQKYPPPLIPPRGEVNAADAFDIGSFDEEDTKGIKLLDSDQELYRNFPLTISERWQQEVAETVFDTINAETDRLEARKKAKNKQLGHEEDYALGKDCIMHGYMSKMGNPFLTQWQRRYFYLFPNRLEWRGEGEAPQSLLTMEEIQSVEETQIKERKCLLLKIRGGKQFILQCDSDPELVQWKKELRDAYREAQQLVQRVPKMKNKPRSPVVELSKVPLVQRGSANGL

[42] = biological target: Calcium/calmodulin-dependent protein kinase type IV (Homo sapiens) (UniProt Q16566); settings: Compound concentration 1000.0 nM
[43] = biological target: Sodium-dependent noradrenaline transporter (Homo sapiens) (UniProt P23975); settings: Compound concentration 10.0 uM
[44] = biological target: Sigma non-opioid intracellular receptor 1 (Homo sapiens, UniProt Q99720); settings: Compound concentration 10.0 uM
[45] = biological target: Kappa-type opioid receptor (Homo sapiens, UniProt P41145); assay: GPCRScan assay: inhibition of KOR; set-up: radioligand conc. used [nm] 0.6 – 1.2, parental cells stable HEK

Work on `O=C(Nc1ccc(Oc2ccc(F)cc2)cc1)N1CCc2ncccc2[C@H]1c1ccc(F)cc1` [BAY-897] yielded a residual activity [1] of 85%, a residual activity [2] of 89% and a residual activity [3] of 98%. The residual activity [4] was 100%, the residual activity [5] was 94% and the residual activity [6] was 89%. For the same compound, the residual activity [7] was 100%, the residual activity [8] was 100% and the residual activity [9] was 95%. It also gave a residual activity [10] of 92%, a residual activity [11] of 100% and a residual activity [12] of 100%. The residual activity [13] was 74%, the residual activity [14] was 94% and the residual activity [15] was 94%. It also gave a residual activity [16] of 91%, an inhibition [17] of 34% and a residual activity [18] of 100%. The residual activity [19] was 96%, the inhibition [20] was 43.3% and the residual activity [21] was 98%. For the same compound, the residual activity [22] was 95%, the inhibition [23] was 12.2% and the residual activity [24] was 94%. For the same compound, the residual activity [25] was 85%, the residual activity [26] was 100% and the residual activity [27] was 86%. The residual activity [28] was 96%, the residual activity [29] was 100% and the residual activity [30] was 94%. For the same compound, the residual activity [31] was 70%, the residual activity [32] was 96% and the residual activity [33] was 78%. The residual activity [34] was 94%, the residual activity [35] was 98% and the residual activity [36] was 98%. The residual activity [37] was 70%, the residual activity [38] was 91% and the residual activity [39] was 94%. It also gave a residual activity [40] of 100%, a residual activity [41] of 92% and a residual activity [42] of 86%. The inhibition [43] was 32.5%, the inhibition [44] was 73.4% and the Ki [45] was 3.13 µM.

With `O=C(Nc1cnc(Oc2ccc(F)cc2)nc1)N1CCc2ncccc2[C@@H]1c1ccc(F)cc1` [BAY-899] the residual activity [1] was 92%, the residual activity [2] was 99% and the residual activity [3] was 84%. For the same compound, the residual activity [4] was 79%, the residual activity [5] was 100% and the residual activity [6] was 100%. It also gave a residual activity [7] of 100%, a residual activity [8] of 100% and a residual activity [9] of 98%. It also gave a residual activity [10] of 91%, a residual activity [11] of 94% and a residual activity [12] of 100%. For the same compound, the residual activity [13] was 100%, the residual activity [14] was 100% and the residual activity [15] was 91%. It also gave a residual activity [16] of 83%, an inhibition [17] of 8.01% and a residual activity [18] of 98%. The residual activity [19] was 100%, the inhibition [20] was 4.38% and the residual activity [21] was 93%. It also gave a residual activity [22] of 70%, an inhibition [23] of -4.4% and a residual activity [24] of 83%. For the same compound, the residual activity [25] was 88%, the residual activity [26] was 100% and the residual activity [27] was 81%. For the same compound, the residual activity [28] was 93%, the residual activity [29] was 100% and the residual activity [30] was 94%. For the same compound, the residual activity [31] was 100%, the residual activity [32] was 88% and the residual activity [33] was 66%. The residual activity [34] was 93%, the residual activity [35] was 97% and the residual activity [36] was 93%. For the same compound, the residual activity [37] was 90%, the residual activity [38] was 82% and the residual activity [39] was 94%. It also gave a residual activity [40] of 100%, a residual activity [41] of 90% and a residual activity [42] of 97%. The inhibition [43] was 10.2%, the inhibition [44] was 64.4% and the Ki [45] was 7.63 µM.
